{"source": "paper PMC5066151", "about": "(ACS Medicinal Chemistry Letters, 2016)", "key": {"[1]": {"test_system": "human-angiotensinogen and human-renin double transgenic rats (dTg rat)", "assay": "Antihypertensive effect, systolic blood pressure by tail-cuff in dTg rat model"}, "[2]": {"target": "pepsin (Homo sapiens, UniProt P0DJD8)", "sequence (P0DJD8 63-388)": "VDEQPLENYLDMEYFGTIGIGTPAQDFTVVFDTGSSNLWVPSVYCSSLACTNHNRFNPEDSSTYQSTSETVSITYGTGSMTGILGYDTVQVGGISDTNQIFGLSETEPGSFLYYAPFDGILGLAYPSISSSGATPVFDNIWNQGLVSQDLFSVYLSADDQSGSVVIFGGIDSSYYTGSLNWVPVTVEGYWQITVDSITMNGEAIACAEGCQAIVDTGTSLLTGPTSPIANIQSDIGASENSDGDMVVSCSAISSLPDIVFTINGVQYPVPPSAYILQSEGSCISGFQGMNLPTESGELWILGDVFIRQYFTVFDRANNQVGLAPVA", "assay": "Selectivity against aspartic protease pepsin", "format": "biochemical"}, "[3]": {"conditions": "cited from earlier work"}, "[4]": {"target": "T1, recombinant human renin (rh-renin) (Homo sapiens, UniProt P00797)", "T1 sequence (P00797 67-406)": "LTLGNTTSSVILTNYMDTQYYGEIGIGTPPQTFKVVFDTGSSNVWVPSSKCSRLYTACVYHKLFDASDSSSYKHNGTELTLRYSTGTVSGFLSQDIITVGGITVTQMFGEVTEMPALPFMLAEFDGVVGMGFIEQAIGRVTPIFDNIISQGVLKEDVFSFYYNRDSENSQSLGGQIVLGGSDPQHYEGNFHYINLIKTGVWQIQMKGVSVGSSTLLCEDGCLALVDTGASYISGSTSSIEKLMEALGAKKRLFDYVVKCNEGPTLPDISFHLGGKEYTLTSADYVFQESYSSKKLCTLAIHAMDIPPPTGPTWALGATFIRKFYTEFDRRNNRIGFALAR", "assay": "Rh-renin inhibition assay", "format": "biochemical", "conditions": "3R,5S-enantiomer vs 3S,5R-enantiomer; rh-renin or hPRA assay"}, "[5]": {"assay": "Pharmacokinetic analysis in rat cassette dosing", "format": "in vivo", "conditions": "1 mg/kg p.o., n = 3"}, "[6]": {"target": "T2, endogenous renin in human plasma (Homo sapiens, UniProt P00797)", "T2 sequence (P00797 67-406)": "T1 sequence (P00797 67-406)", "assay": "Human plasma renin activity", "format": "biochemical", "conditions": "methoxypropylamino vs furfurylamine S3sp binder (compound 5)"}}}
{"smiles": "COCCCCn1c(C(=O)N(CC(C)C)[C@@H]2CNC[C@H](C(=O)N3CCOCC3)C2)nc2ccccc21.Cl", "note": "[Compound 10, 1-(4-methoxybutyl)-N-(2-methylpropyl)-N-[(3S,5R)-5-(morpholin-4-yl)carbonylpiperidin-3-yl]-1H-benzimidazole-2-carboxamide hydrochloride]", "values": [{"measurement": "antihypertensive efficacy (SBP) compared with aliskiren 75 mg/kg", "setting": "[1]; 3 mg/kg p.o., 5 h after oral administration", "value": "comparable to that of aliskiren"}, {"measurement": "antihypertensive efficacy (SBP) compared with aliskiren 75 mg/kg", "setting": "[1]; 10 mg/kg p.o., 5 and 24 h after administration", "value": "exceeded that of aliskiren"}, {"measurement": "antihypertensive efficacy (SBP)", "setting": "[1]; 3 and 10 mg/kg p.o., SBP at 5 and 24 h", "value": "potent and long-lasting antihypertensive efficacy in a dose-dependent manner"}, {"measurement": "IC50", "setting": "[2]", "value": "> 10", "unit": "µM"}]}
{"smiles": "CC(C)CN(C(=O)c1cnc(C(C)(C)C)nc1NCc1ccco1)[C@H]1CCCNC1", "note": "[Compound 1]", "values": [{"measurement": "oral bioavailability in rats", "setting": "[3]", "value": 13.8, "unit": "%"}]}
{"smiles": "COC(=O)[C@H]1CNC[C@@H](N(CC(C)C)C(=O)c2cnc(C(C)(C)C)nc2NCc2ccco2)C1", "note": "[Compound 5]", "values": [{"measurement": "fold more potent toward renin than its enantiomer 4", "setting": "[4]", "value": "about 30 fold"}]}
{"smiles": "COCCCNc1nc(C(C)(C)C)ncc1C(=O)N(CC(C)C)[C@@H]1CNC[C@H](C(=O)N2CCOCC2)C1", "note": "[Compound 8]", "values": [{"measurement": "AUCpo", "setting": "[5]", "value": "not detected"}]}
{"smiles": "COCCCNc1nc(C(C)(C)C)ncc1C(=O)N(CC(C)C)[C@@H]1CNC[C@H](C(=O)OC)C1", "note": "[Compound 6]", "values": [{"measurement": "fold decrease in renin inhibitory activity relative to the furfurylamine moiety", "setting": "[6]", "value": 10, "unit": "fold"}]}
